These results are taken from publication PMC12320693, “Non-edible onion skin waste as a source of bioactive agents for functional foods development: Chemical composition and multifunctional bioactivity” (Food Chemistry: X, 2025).

Converted amounts (≈) assume the structure as drawn. Read-outs that look alike come from different tables or passages of the source. Bounds are passed on as bounds.

The subject of test [1] is Cryptococcus neoformans (CECT1078). Kind of test: Antifungal activity, Cryptococcus neoformans. Type of test: cell-based. The protocol:
(§1) Three yeast strains (Candida albicans (ATCC 10231), Candida krusei (ATCC 6258), and Cryptococcus neoformans (CECT1078)) and filamentous fungi (one Aspergillus fumigatus (ATCC 204305) and three dermatophytes (Trichophyton rubrum (FF5), Nannizzia gypsea (formerly Microsporum gypseum-FF3) and Epidermophyton floccosum (FF9)) were used in this work. Sub-cultures were prepared in Sabouraud Dextrose Agar medium (SDA) from 1–2 days (yeasts and Aspergillus) to 5–7 days (dermatophytes) to ensure optimal growth conditions and purity.
(§2) Fungal organisms were cultured in SDA and then suspended in RPMI-1640 broth. Serial dilutions of the onion skin extract solutions, prepared from a stock solution (8 mg/mL in DMSO), were prepared in RPMI-1640 broth, starting at a concentration of 4 mg/mL. Sample dilutions and cell suspensions were distributed into 96 well plates and incubated under aerobic, humid conditions at 26 °C for dermatophytes and 36 °C for the other organisms. Incubation times were 5 to 7 days for dermatophytes, 72 h for C. neoformans, and 48 h for the remaining organisms. […] In cases where MIC was determined, 20 μL from wells without visible growth were cultured on SDA plates, incubating under the same conditions previously described for each organism. The Minimal Fungicidal Concentration (MFC) was then determined as the lowest concentration where complete no growth was observed on the SDA plates. All the experiments were conducted in triplicate.

Test [2] relates to Trichophyton rubrum (FF5). The test can be described thus: Antifungal activity, Trichophyton rubrum. Type of test: cell-based. The protocol:
as §1, §2

The nature of test [3]: Nitric oxide radical scavenging activity. Type of test: biochemical. The protocol:
The capacity of the onion skin extracts to scavenge the nitric oxide (^●NO) radical was assessed using the method described by [Ferreres et al. (2021)]. This involved mixing 100 μL of the extract solutions, diluted in 0.1 M phosphate buffer (pH 7.4), with the same volume of 20 mM sodium nitroprusside dihydrate. After a 60 min incubation under light, the Griess reagent (100 μL) was added, followed by 10 min incubation in the dark, and absorbance was measured at 560 nm. Quercetin was used as positive control. At least five different concentrations were tested for each onion skin extract, with a minimum of three independent experiments conducted in triplicate. A control was prepared replacing sample with buffer, and a blank with phosphoric acid instead of the Griess reagent.

Test [4] deals with Candida krusei (ATCC 6258). The test can be described thus: Antifungal activity, Candida krusei. Type of test: cell-based. As to conditions: Pichia kudriavzevii, ATCC6258. The protocol:
as §1, §2

Test [5] has as its system Aspergillus fumigatus (ATCC 204305). The test can be described thus: Antifungal activity, Aspergillus fumigatus. The class given is cell-based. The protocol: as §1, §2
Test [6] deals with Candida albicans (ATCC 10231). Kind of test: Antifungal activity, Candida albicans. Type of test: cell-based. The protocol:
as §1, §2

The nature of test [7]: Superoxide anion radical scavenging activity. The class given is biochemical. The protocol:
The ability of the onion skin extracts to scavenge the superoxide anion (O2^●-) radical was determined according to [Ferreres et al. (2021)]. Equal volumes (50 μL) of the extract solutions, diluted in 19 mM phosphate buffer (pH 7.4), and 0.166 mM NADH, and three volumes of 0.043 mM nitrotetrazolium blue chloride were combined. The reaction was initiated by adding 50 μL of 2.7 μM phenazine methosulfate, and absorbance was recorded at 560 nm. A control was prepared substituting sample with buffer.

The subject of test [8] is Nannizzia gypsea (formerly Microsporum gypseum-FF3). The test can be described thus: Antifungal activity, Nannizzia gypsea. The class given is cell-based. The protocol:
as §1, §2

The test system of test [9] is Epidermophyton floccosum (FF9). Kind of test: Antifungal activity, Epidermophyton floccosum. The class given is cell-based. The protocol: as §1, §2
For test [10], the system named is NO production in LPS-induced BV-2 cells. Also noted: method as in Sun et al., 2015. The settings on record: ref Sun et al., 2015; cited from earlier work.
The conditions of test [11]: ref Yuting et al., 1990; cited from earlier work.
On the set-up of test [12]: method as in Li et al., 2011. As to conditions: ref Li et al., 2011; cited from earlier work.
Test [13] addresses T1, α-glucosidase (Saccharomyces cerevisiae, UniProt P53341).
T1 construct: purchased Sigma-Aldrich (St. Louis, MO, USA)
The test can be described thus: α-Glucosidase activity assay (pure enzyme). The class given is biochemical.
Protocol: Enzymes for in vitro enzymatic assays were aldose-reductase (Homo sapiens, human) from Prozomix (UK), α-amylase (porcine pancreas), α-glucosidase (Saccharomyces cerevisiae), acetylcholinesterase from Electrophorus electricus, lipoxygenase from Glycine max (soybean), tyrosinase from mushroom, xanthine oxidase from bovine milk, all provided by Sigma-Aldrich (St. Louis, MO, USA).
α-Glucosidase activity was evaluated incubating 180 μL of a mixture of the extract solutions, prepared in 10 mM potassium phosphate buffer (pH 7.0), and 20 μL of the enzyme solution at 37 °C for 2 min. Absorbance at 405 nm was measured after adding 100 μL of 2.5 mM 4-nitrophenyl-α-D-glucopyranoside, and after 10 min incubation.

Details of test [14]: method as in Li et al., 2011. As to conditions: ref Li et al., 2011; cited from earlier work. This is another data set of the same source.
For test [15], the target named is T2, acetylcholinesterase (Electrophorus electricus, UniProt O42275).
T2 construct: purchased Sigma-Aldrich (St. Louis, MO, USA)
T2 sequence (O42275 24-633): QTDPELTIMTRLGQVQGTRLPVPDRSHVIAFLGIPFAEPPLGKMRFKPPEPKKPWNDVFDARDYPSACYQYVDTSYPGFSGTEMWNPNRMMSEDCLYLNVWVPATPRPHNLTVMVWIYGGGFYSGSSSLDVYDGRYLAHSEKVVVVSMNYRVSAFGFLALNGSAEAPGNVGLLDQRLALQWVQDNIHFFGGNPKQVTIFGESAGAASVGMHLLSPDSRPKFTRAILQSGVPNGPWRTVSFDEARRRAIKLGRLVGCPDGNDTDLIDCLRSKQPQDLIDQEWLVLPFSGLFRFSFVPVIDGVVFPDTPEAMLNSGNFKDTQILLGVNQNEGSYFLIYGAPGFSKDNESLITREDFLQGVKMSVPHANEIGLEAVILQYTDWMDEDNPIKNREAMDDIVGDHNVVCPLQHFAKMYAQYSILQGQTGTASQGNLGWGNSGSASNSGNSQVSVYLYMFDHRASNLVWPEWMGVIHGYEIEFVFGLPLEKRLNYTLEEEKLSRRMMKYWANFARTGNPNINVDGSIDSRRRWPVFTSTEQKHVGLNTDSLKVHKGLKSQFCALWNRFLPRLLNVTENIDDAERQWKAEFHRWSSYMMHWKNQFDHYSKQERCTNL
The test can be described thus: Acetylcholinesterase (AChE) inhibition assay. The class given is biochemical.
Protocol: Acetylcholinesterase activity was assessed combining 75 μL of the extract solutions, prepared in 50 mM Tris-HCl buffer (pH 8.0), plus 0.1 % (w/v) albumin, with 25 μL of 15 mM ATCI and 125 μL of 3 mM DTNB. The formation of 5-thio-2-nitrobenzoate was monitored at 405 nm ([Trigueros, Oliveira, et al., 2024]).

Details of test [16]: method as in Li et al., 2011. The settings on record: ref Li et al., 2011; cited from earlier work. The source holds these as a separate data set.
Test [17] deals with T3, xanthine oxidase (Bos taurus, UniProt P80457).
T3 construct: purchased Sigma-Aldrich (St. Louis, MO, USA); host or cells: bovine milk
T3 sequence (P80457 whole entry): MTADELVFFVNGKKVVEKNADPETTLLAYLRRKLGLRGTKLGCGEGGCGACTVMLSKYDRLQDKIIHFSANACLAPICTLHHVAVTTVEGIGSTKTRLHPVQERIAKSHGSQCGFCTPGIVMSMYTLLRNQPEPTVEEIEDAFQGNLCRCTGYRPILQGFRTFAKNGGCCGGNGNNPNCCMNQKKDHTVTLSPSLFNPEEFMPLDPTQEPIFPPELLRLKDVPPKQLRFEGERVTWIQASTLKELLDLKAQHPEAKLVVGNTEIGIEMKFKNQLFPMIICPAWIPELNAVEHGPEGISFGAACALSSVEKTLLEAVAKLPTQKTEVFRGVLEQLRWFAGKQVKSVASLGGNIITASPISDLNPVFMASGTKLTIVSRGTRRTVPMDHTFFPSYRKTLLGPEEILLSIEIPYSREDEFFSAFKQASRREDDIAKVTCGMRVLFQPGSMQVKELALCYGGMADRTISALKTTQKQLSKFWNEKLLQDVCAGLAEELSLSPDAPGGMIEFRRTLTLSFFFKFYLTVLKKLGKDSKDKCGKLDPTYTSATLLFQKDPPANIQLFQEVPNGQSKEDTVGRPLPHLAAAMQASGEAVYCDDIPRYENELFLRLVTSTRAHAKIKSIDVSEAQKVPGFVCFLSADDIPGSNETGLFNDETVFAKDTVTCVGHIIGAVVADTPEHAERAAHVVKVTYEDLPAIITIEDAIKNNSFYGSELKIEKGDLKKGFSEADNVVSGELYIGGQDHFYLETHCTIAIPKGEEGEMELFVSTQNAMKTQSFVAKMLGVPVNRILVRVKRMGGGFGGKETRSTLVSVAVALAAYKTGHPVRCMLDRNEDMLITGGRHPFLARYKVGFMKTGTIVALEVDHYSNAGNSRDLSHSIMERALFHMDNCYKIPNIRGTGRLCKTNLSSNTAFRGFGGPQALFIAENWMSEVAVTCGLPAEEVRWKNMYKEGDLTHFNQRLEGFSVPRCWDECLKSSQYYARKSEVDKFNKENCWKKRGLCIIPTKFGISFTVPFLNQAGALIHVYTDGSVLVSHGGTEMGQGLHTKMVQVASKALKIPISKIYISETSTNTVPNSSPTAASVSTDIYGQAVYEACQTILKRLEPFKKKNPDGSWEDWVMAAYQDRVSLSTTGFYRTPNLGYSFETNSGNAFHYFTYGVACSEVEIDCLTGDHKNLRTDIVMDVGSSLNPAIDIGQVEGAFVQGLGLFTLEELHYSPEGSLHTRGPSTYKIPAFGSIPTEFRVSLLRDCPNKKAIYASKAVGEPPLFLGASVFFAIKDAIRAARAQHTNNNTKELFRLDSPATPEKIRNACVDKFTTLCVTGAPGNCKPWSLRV
Kind of test: Xanthine oxidase inhibition assay. The class given is biochemical.
Protocol: Xanthine oxidase activity was determined using a previously established method by monitoring the conversion of xanthine to uric acid ([Trigueros, Oliveira, et al., 2024]). 200 μL of the extract solutions, diluted in 5 mM phosphate buffer (pH 7.4), was mixed with 10 μL of xanthine oxidase solution, incubated for 5 min at 37 °C, followed by the addition of 40 μL of 1.25 mM xanthine solution, and absorbance was measured at 295 nm. A control assay was prepared with buffer.

Test [18] has as its target T4, 5-LOX (lipoxygenase) (Glycine max, UniProt P08170).
T4 construct: purchased Sigma-Aldrich (St. Louis, MO, USA)
Kind of test: Lipoxygenase (5-LOX) activity assay. Type of test: biochemical, Glycine max (soybean).
Protocol: The ability of the extracts and pure compounds to inhibit 5-LOX activity was assessed by measuring their capacity to prevent linoleic oxidation. In short, 200 μL of the extract solutions, diluted in 100 mM phosphate buffer (pH 9.0), was mixed with 20 μL of the enzyme solution and 20 μL of 4.18 mM linoleic acid prepared in ethanol, and the absorbance at 234 nm was measured. A control was prepared with buffer instead of sample ([Trigueros, Oliveira, et al., 2024]).

Where [19] appears, read: 100 % growth inhibition, read-out: MIC.

T4 sequence (P08170 whole entry): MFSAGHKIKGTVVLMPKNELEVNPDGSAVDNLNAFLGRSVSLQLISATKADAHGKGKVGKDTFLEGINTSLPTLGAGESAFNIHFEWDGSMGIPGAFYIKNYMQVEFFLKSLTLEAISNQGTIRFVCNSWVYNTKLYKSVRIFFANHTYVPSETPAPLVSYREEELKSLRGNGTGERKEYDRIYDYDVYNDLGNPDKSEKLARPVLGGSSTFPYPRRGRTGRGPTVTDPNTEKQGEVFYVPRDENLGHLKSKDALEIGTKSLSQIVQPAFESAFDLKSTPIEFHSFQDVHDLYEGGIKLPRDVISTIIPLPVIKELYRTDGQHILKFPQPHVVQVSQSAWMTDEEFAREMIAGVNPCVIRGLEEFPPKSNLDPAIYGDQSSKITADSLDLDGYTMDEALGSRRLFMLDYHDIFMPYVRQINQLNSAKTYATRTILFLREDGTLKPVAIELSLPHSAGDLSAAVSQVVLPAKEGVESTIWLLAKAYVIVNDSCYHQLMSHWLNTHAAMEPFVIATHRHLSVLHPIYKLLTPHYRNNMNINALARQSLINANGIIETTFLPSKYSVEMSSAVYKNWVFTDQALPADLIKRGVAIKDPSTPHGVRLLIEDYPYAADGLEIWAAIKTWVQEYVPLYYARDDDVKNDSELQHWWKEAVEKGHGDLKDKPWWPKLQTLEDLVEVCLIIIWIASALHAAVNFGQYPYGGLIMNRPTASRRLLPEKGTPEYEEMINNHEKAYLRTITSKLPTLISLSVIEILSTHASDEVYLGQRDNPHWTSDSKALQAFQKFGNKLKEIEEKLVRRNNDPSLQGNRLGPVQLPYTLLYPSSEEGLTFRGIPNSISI
T1 sequence (P53341 whole entry): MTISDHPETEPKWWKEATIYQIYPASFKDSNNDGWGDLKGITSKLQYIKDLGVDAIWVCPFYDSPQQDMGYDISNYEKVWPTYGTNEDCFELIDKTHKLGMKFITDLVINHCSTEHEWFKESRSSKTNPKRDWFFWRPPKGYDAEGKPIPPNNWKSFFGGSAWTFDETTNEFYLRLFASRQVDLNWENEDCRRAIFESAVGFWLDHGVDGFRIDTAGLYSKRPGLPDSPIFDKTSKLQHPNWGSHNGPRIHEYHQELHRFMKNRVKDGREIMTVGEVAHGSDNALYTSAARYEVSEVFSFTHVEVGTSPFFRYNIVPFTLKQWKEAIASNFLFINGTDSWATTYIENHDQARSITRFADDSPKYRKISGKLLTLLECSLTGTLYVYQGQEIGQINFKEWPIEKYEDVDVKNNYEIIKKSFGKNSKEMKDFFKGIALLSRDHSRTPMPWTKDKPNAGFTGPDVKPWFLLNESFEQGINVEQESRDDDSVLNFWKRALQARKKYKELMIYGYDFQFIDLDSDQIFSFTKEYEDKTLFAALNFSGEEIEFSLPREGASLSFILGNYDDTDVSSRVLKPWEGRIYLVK

In the case of `O=c1c(O)c(-c2ccc(O)c(O)c2)oc2cc(O)cc(O)c12` [Quercetin], the MIC in test [1] (CECT1078, 100 % growth inhibition, read-out: MIC) was 1000 µg/mL (≈ 3.31 mM); in test [1] (CECT1078, read-out: MIC, 90 % growth inhibition, 90 %) it was 750 µg/mL (≈ 2.48 mM); in [2] (setting [19]) it was 1000 µg/mL (≈ 3.31 mM); in test [4] (Candida krusei, 100 % growth inhibition, read-out: MIC), ≥ 4000 µg/mL; in test [5] (ATCC204305, 100 % growth inhibition, read-out: MIC), > 4000 µg/mL; in test [6] (ATCC10231, 100 % growth inhibition, read-out: MIC) it was > 4000 µg/mL. The MIC in test [8] (setting [19]) was > 4000 µg/mL; in test [9] (setting [19]) it was 500 µg/mL (≈ 1.65 mM). The minimal fungicidal concentration (MFC) in [1] (CECT1078, read-out: MFC) was 2000 µg/mL (≈ 6.62 mM); in test [2] (read-out: MFC) it was 1000 µg/mL (≈ 3.31 mM); in test [4] (Candida krusei, read-out: MFC), > 4000 µg/mL; in test [5] (ATCC204305, read-out: MFC), > 4000 µg/mL; in test [6] (ATCC10231, read-out: MFC), > 4000 µg/mL; in [8] (read-out: MFC), > 4000 µg/mL. Besides, in test [9] (read-out: MFC), the MFC came to 1000 µg/mL (≈ 3.31 mM). The “IC50, ●NO scavenging” value in test [3] was found to be 49 ± 2 µg/mL (≈ 0.162 mM). Also, the “IC50, O2●- scavenging” value in test [7] was found to be 22.4 ± 1.1 µg/mL (≈ 0.0741 mM). Further, in test [10], the “concentrations effectively reducing NO production” value was “above 5 μM”.

As for `O=C(O)c1ccc(O)c(O)c1` [Protocatechuic acid], the MFC is 2000 µg/mL (≈ 13 mM) in test [1] (CECT1078); 2000 µg/mL (≈ 13 mM) in test [2]; > 4000 µg/mL in test [4]; > 4000 µg/mL in test [5] (ATCC204305); > 4000 µg/mL in test [6] (ATCC10231); > 4000 µg/mL in test [8]. Moreover, in [9], the MFC was found to be 2000 µg/mL (≈ 13 mM). In addition, the MIC in [1] (CECT1078, read-out: MIC, ≥ 95 % growth inhibition) was 1000 µg/mL (≈ 6.49 mM); in test [2], 2000 µg/mL (≈ 13 mM); in test [2] (read-out: MIC, 90 % growth inhibition) it was 1000 µg/mL (≈ 6.49 mM); in [4], > 4000 µg/mL; in [5] (ATCC204305) it was > 4000 µg/mL; in test [6] (ATCC10231), > 4000 µg/mL. Besides, the MIC in [8] is > 4000 µg/mL; in test [9], 500 µg/mL (≈ 3.24 mM). Moreover, the “IC50, O2●- scavenging” value in [11] was 310 µg/mL (≈ 2.01 mM); in test [7] it was 252 ± 8 µg/mL (≈ 1.64 mM). For the same compound, in test [12], the “IC50, hydroxyl radicals” value was 74 µg/mL (≈ 0.48 mM). In addition, the “IC25, ●NO scavenging” value in [3] was 237 ± 16 µg/mL (≈ 1.54 mM). Further, the “●NO scavenging activity” value in test [3] (at the maximum tested concentration (1.33 mg/mL)) was “below 40%”. For the same compound, the concentration for half-maximal inhibition (IC50) in test [13] was 2760 µM; in [17] it was 908 µM; in test [18], 247 µM. The “IC50, ABTS” value in test [14] is 0.89 µg/mL (≈ 0.00577 mM). The “IC25, AChE” value in test [15] was determined as 1809 ± 31 µg/mL (≈ 11.7 mM). The “IC50, DPPH” value in test [16] was 1.88 µg/mL (≈ 0.0122 mM).

The MIC is the lowest concentration found to suppress growth. The MFC is the smallest concentration meeting the test's criterion for killing the fungus. As usually defined, the IC50 is the midpoint of a concentration-inhibition curve. Lower therefore signals greater potency.
